Experimental data taken from patent publication US20230416240A1, “KAT6 TARGETING COMPOUNDS” (Prelude Therapeutics Incorporated, priority 2022, published 2023).

Tests used:
[1] = biological target: T1, KAT6A (Homo sapiens, UniProt Q92794); assay: Western Blot KAT6A Degradation Assessment; type: cell-based; conditions: 0.1 μM compound, 24 hours of treatment, HCC1954 cell line, KAT6A normalized to GAPDH and DMSO
T1 construct: These studies were conducted in the HCC1954 cell line which harbors a KAT6A copy number amplification; endogenous in cells; host or cells: HCC1954
T1 sequence (Q92794 whole entry): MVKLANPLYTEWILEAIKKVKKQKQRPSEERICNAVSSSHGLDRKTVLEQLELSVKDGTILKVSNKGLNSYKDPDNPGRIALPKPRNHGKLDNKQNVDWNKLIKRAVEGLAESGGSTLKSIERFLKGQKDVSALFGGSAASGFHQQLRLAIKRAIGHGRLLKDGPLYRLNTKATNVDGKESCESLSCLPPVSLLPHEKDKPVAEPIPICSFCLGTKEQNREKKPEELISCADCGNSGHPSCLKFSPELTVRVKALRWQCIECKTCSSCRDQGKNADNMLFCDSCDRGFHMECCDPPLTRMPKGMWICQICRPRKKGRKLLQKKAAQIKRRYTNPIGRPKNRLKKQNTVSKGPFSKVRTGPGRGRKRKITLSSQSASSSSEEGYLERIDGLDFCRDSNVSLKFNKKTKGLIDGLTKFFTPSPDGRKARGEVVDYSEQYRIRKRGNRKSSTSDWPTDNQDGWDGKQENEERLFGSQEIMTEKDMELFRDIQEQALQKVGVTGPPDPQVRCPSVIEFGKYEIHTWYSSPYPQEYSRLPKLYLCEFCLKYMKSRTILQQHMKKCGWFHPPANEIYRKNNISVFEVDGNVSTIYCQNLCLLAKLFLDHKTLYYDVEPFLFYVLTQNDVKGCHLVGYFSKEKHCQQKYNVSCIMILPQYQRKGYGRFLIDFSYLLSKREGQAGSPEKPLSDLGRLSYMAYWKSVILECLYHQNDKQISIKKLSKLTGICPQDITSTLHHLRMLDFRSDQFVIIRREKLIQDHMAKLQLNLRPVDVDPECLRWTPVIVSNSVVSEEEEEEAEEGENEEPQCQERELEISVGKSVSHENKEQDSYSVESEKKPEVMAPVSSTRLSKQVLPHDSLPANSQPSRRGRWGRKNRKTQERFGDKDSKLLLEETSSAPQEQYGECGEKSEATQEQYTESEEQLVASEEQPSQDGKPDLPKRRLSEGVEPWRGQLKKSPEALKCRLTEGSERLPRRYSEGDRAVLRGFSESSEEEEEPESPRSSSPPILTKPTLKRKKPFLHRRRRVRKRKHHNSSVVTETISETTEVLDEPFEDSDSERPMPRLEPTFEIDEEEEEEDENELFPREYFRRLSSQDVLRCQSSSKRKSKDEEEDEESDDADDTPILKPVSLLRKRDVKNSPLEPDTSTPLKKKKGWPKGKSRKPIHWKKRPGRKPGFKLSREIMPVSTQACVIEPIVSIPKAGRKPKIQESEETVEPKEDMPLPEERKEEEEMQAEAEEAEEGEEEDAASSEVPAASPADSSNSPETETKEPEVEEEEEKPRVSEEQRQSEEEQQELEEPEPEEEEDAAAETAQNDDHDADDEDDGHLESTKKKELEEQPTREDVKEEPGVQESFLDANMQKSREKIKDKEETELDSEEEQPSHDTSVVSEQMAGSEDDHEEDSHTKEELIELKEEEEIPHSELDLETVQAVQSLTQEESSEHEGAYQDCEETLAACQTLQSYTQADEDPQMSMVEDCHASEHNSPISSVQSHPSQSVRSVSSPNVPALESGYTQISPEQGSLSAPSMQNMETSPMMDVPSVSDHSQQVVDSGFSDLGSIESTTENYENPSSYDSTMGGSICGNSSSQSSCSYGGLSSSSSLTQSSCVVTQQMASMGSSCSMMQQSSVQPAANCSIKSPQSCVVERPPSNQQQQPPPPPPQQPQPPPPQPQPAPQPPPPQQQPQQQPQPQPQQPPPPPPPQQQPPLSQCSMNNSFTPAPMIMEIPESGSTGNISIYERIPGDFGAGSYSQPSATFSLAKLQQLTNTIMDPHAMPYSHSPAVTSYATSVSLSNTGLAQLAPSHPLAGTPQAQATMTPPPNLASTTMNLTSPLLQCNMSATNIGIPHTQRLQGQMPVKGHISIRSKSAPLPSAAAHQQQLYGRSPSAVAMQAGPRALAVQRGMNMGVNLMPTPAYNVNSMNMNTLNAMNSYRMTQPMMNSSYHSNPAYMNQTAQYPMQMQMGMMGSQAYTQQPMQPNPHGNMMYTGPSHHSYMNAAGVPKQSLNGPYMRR
Description: The activity of compounds was evaluated by measuring KAT6A protein levels as a readout of KAT6A degradation ability using western blot. These studies were conducted in the HCC1954 cell line which harbors a KAT6A copy number amplification. Cells were maintained in a 37° C. incubator at 5% CO2 in the following media: RPMI 1640, ATCC© Modification (Gibco, A10491-01) supplemented with 10% v/v FBS (Gibco, 26140-079) and 1% penicillin streptomycin (Gibco, 15140-122). Cells were seeded in 6-well plates at a density of 300,000 cells/well and allowed to attach overnight in an incubator. Compounds dissolved in DMSO were prepared at 1000× the desired final concentration such that the final percentage of DMSO was 0.1%. After 24 hours of treatment, cells were washed with phosphate buffered saline (PBS) (Corning, 21-040-CV), detached with trypsin-EDTA (Gibco, #25200-056), and pelleted in complete RPMI media in a microcentrifuge for 5 min at 1500 rpm. Protein was extracted from cell pellets by re-suspending in 15 uL PBS before adding 45 uL of lysis buffer composed of 4% SDS, 1× protease and phosphatase inhibitors, and 1 mM PMSF (Cell Signaling Technology, #8553S). Lysates were transferred to homogenizer columns (Omega Biotek, #HCR003) and centrifuged for 1.5 min at 12,000 rpm.
Homogenized lysates were quantified by BCA assay (ThermoScientific, Pierce BCA Protein Assay, #23223, #23224) as per manufacturer instructions. Samples were then diluted in 4× Laemmli buffer (Biorad, #1610747) to a 1× solution which was boiled at 95° C. for 5 minutes. To assess KAT6A protein expression, samples were run on 26 well gels (Biorad, 4-15% Criterion TGX Precast gels, #5671085) at 120V for approximately 1 hour. Protein was transferred to low-fluorescence PVDF membranes (Millipore Sigma, #IPFL00010) using Trans-Blot Turbo Transfer System (Biorad). Membranes were then probed with KAT6A (Cell Signaling Technology, #78462) and GAPDH (Cell Signaling Technology, #5174S) primary, and fluorescently tagged secondary antibodies (LI-COR, IRDye 800CW Goat anti-rabbit #926-32211; IRDye 680RD Goat anti-mouse #926-68070) at manufacturer recommended conditions using the iBind Flex western device (Thermofisher, SLF2000). Membranes were washed briefly in water and scanned with a LI-COR Odyssey CLx. Quantification of bands was assessed using Image Studio Ver 5.2. to normalize KAT6A expression to GAPDH loading controls before representing KAT6A expression as a percentage of that observed in DMSO.

[2] = biological target: T2, HiBit tagged KAT6A (Homo sapiens, UniProt Q92794); assay: HiBit KAT6A Degradation Assessment; type: cell-based; conditions: HeLa cells with HiBit tagged KAT6A, 18 h of treatment, 9-point serial dilution
T2 construct: host or cells: HeLa
T2 sequence (Q92794 whole entry): as above
Description: The degradation activity of compounds was evaluated by measuring levels of KAT6A protein using the HiBiT system. These studies were conducted in HeLa cells with a HiBit tagged KAT6A. Cells were maintained in a 37° C. incubator at 5% CO2 in EMEM (ATCC, 30-2003) supplemented with 10% v/v FBS (Gibco, 26140-079) and 1% penicillin streptomycin. Cells were seeded in 384-well plates at a density of 2,000 cells/well. Compounds dissolved in DMSO were added in 9-point serial dilution. After 18 h of treatment, KAT6A levels were measured using the Nano-Glo® HiBiT Lytic Detection System (Promega catalog number N3030) per manufacturer's instructions. Luminescence signal was measured with a multimode plate reader (Envision 2105, Perkin Elmer). Luminescence values were normalized to background and DMSO controls to quantify KAT6A for each condition. Results were analyzed, and DC50 and Dmax values obtained using a four-parameter logistic curve fit.

inhibition at 0.1 µM [1] [%] | DC50 [2] [nM] | Dmax [2] [%] | Compound
50 to 75 | 100 to 1000 | 50 to 75 | COc1cc(Cn2cccn2)cc2onc(NS(=O)(=O)c3cccc(N4CCN(CC5CCN(c6ccc7c(c6)C(=O)N(C6CCC(=O)NC6=O)C7=O)C5)CC4)c3)c12 (centres unmarked) [Example 1, N-(6-((1H-Pyrazol-1-yl)methyl)-4-methoxybenzo[d]isoxazol-3-yl)-3-(4-((1-(2-(2,6-dioxopiperidin-3-yl)-1,3-dioxoisoindolin-5-yl)pyrrolidin-3-yl)methyl)piperazin-1-yl)benzenesulfonamide]
– | < 10 | > 75 | COc1c(N2CC3(CCN(C[C@@H]4CCN(c5ccc6c(c5)C(=O)N(C5CCC(=O)NC5=O)C6=O)C4)CC3)C2)cccc1S(=O)(=O)Nc1noc2cc(Cn3cccn3)cc(OC)c12 (stereo partly drawn) [Example 30, N-(6-((1H-pyrazol-1-yl)methyl)-4-methoxybenzo[d]isoxazol-3-yl)-3-(7-(((3S)-1-(2-(2,6-dioxopiperidin-3-yl)-1,3-dioxoisoindolin-5-yl)pyrrolidin-3-yl)methyl)-2,7-diazaspiro[3.5]nonan-2-yl)-2-methoxybenzenesulfonamide]
– | 100 to 1000 | 50 to 75 | COc1cc(Cn2cccn2)cc2onc(NS(=O)(=O)c3cccc(N4CCN(CC5CCN(c6cccc7c6C(=O)N(C6CCC(=O)NC6=O)C7=O)C5)CC4)c3)c12 (centres unmarked) [Example 31, N-(6-((1H-Pyrazol-1-yl)methyl)-4-methoxybenzo[d]isoxazol-3-yl)-3-(4-((1-(2-(2,6-dioxopiperidin-3-yl)-1,3-dioxoisoindolin-4-yl)pyrrolidin-3-yl)methyl)piperazin-1-yl)benzenesulfonamide]
– | 10 to 100 | 50 to 75 | COc1cc(Cn2cccn2)cc2onc(NS(=O)(=O)c3cccc(N4CCN(CC5CCN(c6cccc7c6C(=O)N(C6CCC(=O)NC6=O)C7=O)CC5)CC4)c3)c12 (centres unmarked) [Example 32, 3-[4-[[1-[2-(2,6-Dioxopiperidin-3-yl)-1,3-dioxoisoindol-4-yl]piperidin-4-yl]methyl]piperazin-1-yl]-N-[4-methoxy-6-(pyrazol-1-ylmethyl)-1,2-benzoxazol-3-yl]benzenesulfonamide]
– | < 10 | > 75 | COc1cc(Cn2cccn2)cc2onc(NS(=O)(=O)c3cccc(N4CC5(CCN(CC6CCN(c7ccc8c(c7)CN(C7CCC(=O)NC7=O)C8=O)C6)CC5)C4)c3)c12 (centres unmarked) [Example 33, N-(6-((1H-pyrazol-1-yl)methyl)-4-methoxybenzo[d]isoxazol-3-yl)-3-(7-((1-(2-(2,6-dioxopiperidin-3-yl)-1-oxoisoindolin-5-yl)pyrrolidin-3-yl)methyl)-2,7-diazaspirononan-2-yl)benzenesulfonamide]
– | < 10 | 50 to 75 | COc1cc(Cn2cccn2)cc2onc(NS(=O)(=O)c3cccc(N4CC5(CCN(CC6CCN(c7ccc8c(c7)C(=O)N(C7CCC(=O)NC7=O)C8)C6)CC5)C4)c3)c12 (centres unmarked) [Example 34, N-(6-((1H-pyrazol-1-yl)methyl)-4-methoxybenzo[d]isoxazol-3-yl)-3-(7-((1-(2-(2,6-dioxopiperidin-3-yl)-3-oxoisoindolin-5-yl)pyrrolidin-3-yl)methyl)-2,7-diazaspirononan-2-yl)benzenesulfonamide]
– | < 10 | 50 to 75 | COc1cc(Cn2cccn2)cc2onc(NS(=O)(=O)c3cccc(N4CC5(CCN(C[C@H]6CCN(c7ccc8c(c7)C(=O)N(C7CCC(=O)NC7=O)C8=O)C6)CC5)C4)c3)c12 (stereo partly drawn) [Example 35, N-(6-((1H-pyrazol-1-yl)methyl)-4-methoxybenzo[d]isoxazol-3-yl)-3-(7-(((3R)-1-(2-(2,6-dioxopiperidin-3-yl)-1,3-dioxoisoindolin-5-yl)pyrrolidin-3-yl)methyl)-2,7-diazaspiro[3.5]nonan-2-yl)benzenesulfonamide]
– | 10 to 100 | > 75 | COc1cc(Cn2cccn2)cc2onc(NS(=O)(=O)c3cccc(N4CCC(NC[C@@H]5CCN(c6ccc7c(c6)CN([C@H]6CCC(=O)NC6=O)C7=O)C5)CC4)c3)c12 [Example 36, N-(6-((1H-pyrazol-1-yl)methyl)-4-methoxybenzo[d]isoxazol-3-yl)-3-(4-((((S)-1-(2-((S)-2,6-dioxopiperidin-3-yl)-1-oxoisoindolin-5-yl)pyrrolidin-3-yl)methyl)amino)piperidin-1-yl)benzenesulfonamide]
– | < 10 | 50 to 75 | COc1cc(Cn2cccn2)cc2onc(NS(=O)(=O)c3cccc(N(C)C4CCN(C[C@@H]5CCN(c6ccc7c(c6)CN([C@H]6CCC(=O)NC6=O)C7=O)C5)CC4)c3)c12 [Example 37, N-(6-((1H-Pyrazol-1-yl)methyl)-4-methoxybenzo[d]isoxazol-3-yl)-3-((1-(((S)-1-(2-((S)-2,6-dioxopiperidin-3-yl)-1-oxoisoindolin-5-yl)pyrrolidin-3-yl)methyl)piperidin-4-yl)(methyl)amino)benzenesulfonamide]
– | 10 to 100 | 50 to 75 | COc1cc(Cn2cccn2)cc2onc(NS(=O)(=O)c3cccc(NC4CCN(C[C@@H]5CCN(c6ccc7c(c6)CN([C@H]6CCC(=O)NC6=O)C7=O)C5)CC4)c3)c12 [Example 38, N-(6-((1H-Pyrazol-1-yl)methyl)-4-methoxybenzo[d]isoxazol-3-yl)-3-((1-(((S)-1-(2-((S)-2,6-dioxopiperidin-3-yl)-1-oxoisoindolin-5-yl)pyrrolidin-3-yl)methyl)piperidin-4-yl)amino)benzenesulfonamide]
– | < 10 | > 75 | COc1cc(Cn2cccn2)cc2onc(NS(=O)(=O)c3cccc(N4CCC5(CCN(C[C@@H]6CCN(c7ccc8c(c7)CN(C7CCC(=O)NC7=O)C8=O)C6)CC5)CC4)c3)c12 (stereo partly drawn) [Example 39, N-(6-((1H-Pyrazol-1-yl)methyl)-4-methoxybenzo[d]isoxazol-3-yl)-3-(9-(((3S)-1-(2-(2,6-dioxopiperidin-3-yl)-1-oxoisoindolin-5-yl)pyrrolidin-3-yl)methyl)-3,9-diazaspiro[5.5]undecan-3-yl)benzenesulfonamide]
– | < 10 | > 75 | COc1cc(Cn2cccn2)cc2onc(NS(=O)(=O)c3cccc(N4C[C@@H]5CN(C[C@@H]6CCN(c7ccc8c(c7)CN([C@H]7CCC(=O)NC7=O)C8=O)C6)C[C@H]5C4)c3)c12 [Example 40, N-(6-((1H-Pyrazol-1-yl)methyl)-4-methoxybenzo[d]isoxazol-3-yl)-3-((3aS,6aS)-5-(((S)-1-(2-((S)-2,6-dioxopiperidin-3-yl)-1-oxoisoindolin-5-yl)pyrrolidin-3-yl)methyl)hexahydropyrrolo[3,4-c]pyrrol-2(1H)-yl)benzenesulfonamide]
– | < 10 | 50 to 75 | COc1ccc(N2CC3(CCN(CC4CCN(c5ccc6c(c5)C(=O)N(C5CCC(=O)NC5=O)C6=O)C4)CC3)C2)cc1S(=O)(=O)Nc1noc2cc(Cn3cccn3)cc(OC)c12 (centres unmarked) [Example 41, N-(6-((1H-pyrazol-1-yl)methyl)-4-methoxybenzo[d]isoxazol-3-yl)-5-(7-((1-(2-(2,6-dioxopiperidin-3-yl)-1,3-dioxoisoindolin-5-yl)pyrrolidin-3-yl)methyl)-2,7-diazaspiro[3.5]nonan-2-yl)-2-methoxybenzenesulfonamide]
– | 10 to 100 | 50 to 75 | COc1cc(Cn2cccn2)cc2onc(NS(=O)(=O)c3cccc(N4CCN(CC5CN(c6ccc7c(c6)C(=O)N(C6CCC(=O)NC6=O)C7=O)C5)CC4)c3)c12 (centres unmarked) [Example 42, N-(6-((1H-pyrazol-1-yl)methyl)-4-methoxybenzo[d]isoxazol-3-yl)-3-(4-((1-(2-(2,6-dioxopiperidin-3-yl)-1,3-dioxoisoindolin-5-yl)azetidin-3-yl)methyl)piperazin-1-yl)benzenesulfonamide]
